The results in this text go back to patent EP2435064B1, “USE OF HAT INHIBITORS AND TMPRSS2 INHIBITORS AS MEDICAMENTS” (Philipps-Universität Marburg, priority 2009, dated 2010).

For orientation: Ki means the equilibrium dissociation constant of an inhibitor or competing ligand from its target. Low readings indicate a stronger hold on the target, high ones a looser hold on the target.

The target in one test is T1, HAT (Homo sapiens, UniProt O60235).
T1 construct: purchased R&D Systems
T1 sequence (O60235 1-418): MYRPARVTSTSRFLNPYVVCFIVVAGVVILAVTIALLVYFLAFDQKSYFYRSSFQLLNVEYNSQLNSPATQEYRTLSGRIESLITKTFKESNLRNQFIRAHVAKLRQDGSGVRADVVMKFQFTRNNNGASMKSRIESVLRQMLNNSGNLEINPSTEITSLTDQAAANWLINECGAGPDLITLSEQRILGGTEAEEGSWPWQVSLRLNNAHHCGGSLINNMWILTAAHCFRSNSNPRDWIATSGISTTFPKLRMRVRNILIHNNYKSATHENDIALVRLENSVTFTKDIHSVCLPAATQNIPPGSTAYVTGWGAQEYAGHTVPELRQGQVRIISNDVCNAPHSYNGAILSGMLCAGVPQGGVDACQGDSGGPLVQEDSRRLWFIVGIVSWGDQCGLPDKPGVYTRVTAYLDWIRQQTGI
Briefly: Enzyme kinetic determination of inhibition of HAT (Ki, Dixon method, fluorogenic substrate d-Cyclohexylalanin-Pro-Arg-7-Aminomethylcoumarin). The format is biochemical. The conditions noted are these: HAT (R&D Systems), Tris pH 9.5, room temperature. The text has this: (§1) Die Hemmwirkung der Inhibitoren für HAT (R&D Systems) und TMPRSS2 (katalytische Domäne exprimiert in E. coli) wurden unter Verwendung chromogener Substrate ermittelt. Für HAT wurde d-Cyclohexylalanin-Pro-Arg-7-Aminomethylcoumarin und für TMPRSS2 d-Cyclohexylalanin-Gly-Arg-p-Nitroanilin als Substrat verwendet. Die Bestimmung wurde mit einem Fluoreszenz-Plattenreader Safire^2 der Firma Tecan (λEx = 380 nm, λEm = 460 nm) für HAT und mit einem UV/Vis Plattenreader iEMS Reader MF 1401 der Firma LABSYSTEMS für TMPRSS2 bei 405 nm durchgeführt. Die Messung erfolgte in Tris-Puffer (50 mM Tris pH 9.5, 0,05% Brij 58 und 1 mg/ml bovines serum Albumin für HAT und 50 mM Tris pH 8.0, 0,154 M NaCl für TMPRSS2) auf Mikrotiter Platten bei Raumtemperatur. Die Inhibitorlösungen geeigneter Konzentration wurden in DMSO hergestellt. Im Messansatz wurden zu 2 µl Inhibitorlösung unterschiedlicher Konzentration jeweils 158 µl Puffer und 20 µl Substratlösung geben, und danach die Reaktion durch Zugabe von 20 µl Enzymlösung gestartet. Jeder Inhibitor wurde mit drei verschiedenen Substratkonzentrationen vermessen (50 µM, 100 µM, 200 µM für HAT und 45 µM, 90 µM und 181 µM für TMPRSS2). Die Inhibitorkonzentration wurde mindestens um den Bereich einer Größenordnung variiert und jeweils die steady-state Geschwindigkeit bestimmt. Die Berechnung der Ki-Werte erfolgte mit Hilfe eines Computerprogramms nach der Methode von Dixon.

For a further test, the target named is T2, TMPRSS2 (Homo sapiens, UniProt O15393).
T2 construct: TMPRSS2 (katalytische Domäne exprimiert in E. coli); made in house; host or cells: E. coli
T2 sequence (O15393 256-492 limits assumed): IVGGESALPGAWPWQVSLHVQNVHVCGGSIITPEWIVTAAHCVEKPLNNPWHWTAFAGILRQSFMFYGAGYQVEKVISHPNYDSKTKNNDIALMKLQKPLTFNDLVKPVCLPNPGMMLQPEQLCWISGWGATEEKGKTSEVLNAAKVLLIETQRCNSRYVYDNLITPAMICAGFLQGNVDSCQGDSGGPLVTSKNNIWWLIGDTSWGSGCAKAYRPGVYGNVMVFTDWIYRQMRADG
Kind of test: Enzyme kinetic determination of inhibition of TMPRSS2 (Ki, Dixon method, chromogenic substrate d-Cyclohexylalanin-Gly-Arg-p-Nitroanilin). Format: biochemical. The conditions noted are these: TMPRSS2 catalytic domain expressed in E. coli, Tris pH 8.0, room temperature.
Text: as §1

Test [1] has as its system Influenzavirus-Isolat A/Memphis/14/96 (H1N1). The format is cell-based. The conditions noted are these: Calu-3-Zellen (endogenous TMPRSS2), 24 h infection.
For the next test, the target named is T3, HAT-Flag (Homo sapiens, UniProt O60235).
T3 construct: made in house; host or cells: MDCK-HAT cells (MDCK stably transfected with pcEFTet-On/NEO and pTRE2pur-HAT-FLAG, doxycycline-inducible); isolated with the FLAG Tagged Protein Immunoprecipitation Kit
T3 sequence (O60235 1-418): T1 sequence (O60235 1-418)
Kind of test: Inhibition of affinity-purified HAT-Flag: cleavage of the substrate Boc-Leu-Gly-Arg-AMC. Format: biochemical. The conditions noted are these: 25 µM Boc-Leu-Gly-Arg-AMC, 2 h, 37° C, pH 7,4. The text has this:
Die in MDCK-HAT-Zellen exprimierte Protease HAT besitzt zusätzlich ein C-terminales Flag-Epitop, welches die Affinitätsreinigung der Protease mit Hilfe von anti-FlagM2-Agarose (Sigma-Aldrich) ermöglicht. HAT-Flag liegt nach der Immunpräzipitation als aktive Protease vor. Die enzymatische Aktivität kann mit Hilfe des Fluoreszenzsubstrats Boc-Leu-Gly-Arg-AMC bestimmt werden.
Für Inhibitionsstudien wurde HAT-Flag zunächst mit Hilfe des FLAG®Tagged Protein Immunoprecipitation Kits aus MDCK-HAT-Zellen isoliert. Anschließend wurde die isolierte Protease mit 25 µM Boc-Leu-Gly-Arg-AMC in 50 mM Tris/HCl pH 7,4 in An- oder Abwesenheit der Inhibitoren (Endkonzentrationen 0,1 -10 µM) für 2 h bei 37° C inkubiert. Die Umsetzung des Substrates wurde mit Hilfe eines Fluoreszenz-Spektralphotomers bei 350 nm (Extinktion) sowie 460 nm (Emission) bestimmt. Als Kontrolle diente die Bestimmung der Proteaseaktivität in Abwesenheit eines Inhibitors (entspricht 0% Hemmung). Tabelle 2: Hemmwirkung synthetischer Serinproteasehemmstoffe auf die HAT-katalysierte Spaltung des Substrats Boc-Leu-Gly-Arg-AMC.

`N=C(N)NCCCC[C@@H](NS(=O)(=O)Cc1ccccc1)C(=O)N1CCC[C@H]1C(=O)NCc1ccc(C(=N)N)cc1` [Inhibitor 10]: the affinity at HAT, expressed as Ki, was 13 nM.

Turning to `N=C(N)c1ccc(CNC(=O)[C@@H]2CCCN2C(=O)[C@@H](CCCCNC(=O)OCc2ccccc2)NS(=O)(=O)Cc2ccccc2)cc1` [Inhibitor 8], the inhibition constant (Ki) at HAT came to 49 nM.

For the compound `N=C(N)NCCC[C@@H](NS(=O)(=O)Cc1ccccc1)C(=O)N1CCC[C@H]1C(=O)NCc1ccc(C(=N)N)cc1` [Inhibitor 1], the results for the Ki on TMPRSS2 and on HAT were 3 nM and 19 nM, respectively. Besides, the “Reduktion der Virusausbreitung” value in test [1] is recorded as “konzentrationsabhängige Reduktion der Virusausbreitung”. For the same compound, the entries for the “Prozent Hemmung (%)” value on HAT-Flag (Inhibitorkonzentration 0,1 µM), on HAT-Flag (Inhibitorkonzentration 1 µM) and at HAT-Flag (Inhibitorkonzentration 10 µM) were 22,3%, 70,7% and 93,1%, respectively. As for `N=C(N)c1ccc(CNC(=O)[C@H](CCCCNC(=O)OCc2ccccc2)NC(=O)[C@@H](CC2CCCCC2)NS(=O)(=O)Cc2ccccc2)cc1` [Inhibitor 17], the Ki on TMPRSS2 worked out at 84 nM; at HAT it was 488 nM. `N=C(N)c1ccc(CNC(=O)CNC(=O)[C@@H](CO)NS(=O)(=O)Cc2ccccc2)cc1` [Inhibitor 15]: the Ki on HAT amounted to 1840 nM. That is a single-digit micromolar value. On the same count and under the same terms, to `N=C(N)c1ccc(CNC(=O)[C@@H]2CCCN2C(=O)C(CCc2ccccn2)NS(=O)(=O)Cc2ccccc2)cc1` (stereo partly shown) [Inhibitor 11] belongs 32 nM; to `N=C(N)c1ccc(CNC(=O)[C@@H]2CCCN2C(=O)[C@@H](CCCCN)NS(=O)(=O)Cc2ccccc2)cc1` [Inhibitor 9], 30 nM. For `CCCCCCCCCC(=O)NCCCC[C@H](NC(=O)[C@@H](CCCNC(=N)N)NS(=O)(=O)Cc1ccccc1)C(=O)NCc1ccc(C(=N)N)cc1` [Inhibitor 14], the results for the Ki on TMPRSS2 and at HAT were 8 nM and 160 nM, respectively. For `N=C(N)c1ccc(CNC(=O)[C@@H]2CCCN2C(=O)[C@@H](CCc2ccccc2)NS(=O)(=O)Cc2ccccc2)cc1` [Inhibitor 7], the inhibition constant (Ki) at HAT stood at 55 nM. Take `N=C(N)c1ccc(CNC(=O)CNC(=O)[C@@H](CCCN=C(N)N)NS(=O)(=O)Cc2ccccc2)cc1` [Inhibitor 2]: the affinity on HAT, expressed as Ki, was 279 nM. This Ki lies about 5.1-fold higher than the previous one. The same measure, in the same setting: to `CCCCCCCCCC(=O)NCCCC[C@H](NC(=O)[C@@H](CC1CCCCC1)NS(=O)(=O)Cc1ccccc1)C(=O)NCc1ccc(C(=N)N)cc1` [Inhibitor 16] belongs more than 20000 nM; to `N#Cc1ccc(C[C@@H](NS(=O)(=O)Cc2ccccc2)C(=O)N2CCC[C@H]2C(=O)NCc2ccc(C(=N)N)cc2)cc1` [Inhibitor 12], 210 nM; to `N=C(N)c1ccc(CNC(=O)[C@H](CCCCNC(=O)OCc2ccccc2)NC(=O)[C@@H](CO)NS(=O)(=O)Cc2ccccc2)cc1` [Inhibitor 4], 48 nM.

On to `N=C(N)c1ccc(CNC(=O)[C@@H]2CCCN2C(=O)[C@@H](CC2CCCCC2)NS(=O)(=O)Cc2ccccc2)cc1` [Inhibitor 5], for which the figures for the inhibition constant (Ki) on TMPRSS2 and at HAT were 81 nM and 77 nM, respectively. Also, the “Prozent Hemmung (%)” value is on record as 27% on HAT-Flag (Inhibitorkonzentration 0,1 µM), 47,4% at HAT-Flag (Inhibitorkonzentration 1 µM) and 51,5% at HAT-Flag (Inhibitorkonzentration 10 µM).

For the compound `N=C(N)c1ccc(CNC(=O)[C@H](CO)NC(=O)[C@@H](CO)NS(=O)(=O)Cc2ccccc2)cc1` [Inhibitor 3], the “Reduktion der Virusausbreitung” value in test [1] is “konzentrationsabhängige Reduktion der Virusausbreitung”. In addition, the affinity on HAT corresponds to a Ki of 78 nM. The “Prozent Hemmung (%)” value at HAT-Flag (Inhibitorkonzentration 0,1 µM) was 29,5%; at HAT-Flag (Inhibitorkonzentration 1 µM) it was 47,1%; on HAT-Flag (Inhibitorkonzentration 10 µM) it was 80,3%. Regarding `[H]/N=C(\N)c1ccc(CNC(=O)[C@@H]2CCCN2C(=O)[C@@H](Cc2ccccc2)NS(=O)(=O)Cc2ccccc2)cc1` [Inhibitor 6], the affinity at HAT corresponds to a Ki of 66 nM.
